Source: PMC10148601 (Analytica Chimica Acta, 2023)
“Also recorded” adds a separate entry of the source. Bridge positions count the residues as written; N and C are the ends. Ends that are not written are not given here.

Tests used:
SARS-CoV-2 NP [1] = biological target: T1, SARS-CoV-2 NP (Severe acute respiratory syndrome coronavirus 2, UniProt P0DTC9)
[2] = tested on: SARS-CoV-2 NP versus SARS-CoV NP, MERS-CoV NP, HCoV-OC43 NP, SARS-CoV-2 S1, S-RBD, MERS-CoV S1, VEGF165, HSA, AFP, CEA, BSA; assay type: binding; conditions: n = 3
SARS-CoV-2 NP [3] = biological target: T1, SARS-CoV-2 NP; remark: listed apart in the source
SARS-CoV-2 NP [4] = biological target: T1, SARS-CoV-2 NP; remark: listed apart in the source

Sequence | Frequency among sequenced phage clones (SARS-CoV-2 NP [1]) | specificity of binding [2] | binding specificity and affinity in words (SARS-CoV-2 NP [3]) | binding to SARS-CoV-2 NP (positive clone) (SARS-CoV-2 NP [4]) | relative affinity for NP (SARS-CoV-2 NP [4])
ACTPRSANYC (disulfide 2-10 (inferred)) [N4] | 3/26 | can bind to either MERS-CoV NP, SARS-CoV NP, or HCoV-OC43 NP; also recorded: limited selectivity |  |  | 
ACGTKPTKFCGGGGGS (disulfide 2-10 (inferred)) [peptide probe N1] |  |  | binds to SARS-CoV-2 NP with good specificity and high affinity |  | 
ACLKTYWYNC (disulfide 2-10 (inferred)) [N5] | 2/26 | can bind to either MERS-CoV NP, SARS-CoV NP, or HCoV-OC43 NP; also recorded: limited selectivity |  | have the ability to bind to SARS-CoV-2 NP with a significant difference compared to the control (P < 0.001) | may have higher affinity for NP than the other clones
ACGTKPTKFC (disulfide 2-10 (inferred)) [N1] | 6/26 | specifically recognizes SARS-CoV-2 NP; also recorded: binds specifically to SARS-CoV-2 NP; also recorded: has the best specificity |  | have the ability to bind to SARS-CoV-2 NP with a significant difference compared to the control (P < 0.001) | may have higher affinity for NP than the other clones
